This passage reports IC50 and Ki results from ChEMBL document CHEMBL1909046, “DrugMatrix in vitro pharmacology data”.

Data set [1] addresses 5-hydroxytryptamine receptor 2B (Homo sapiens, UniProt P41595). The class given is cell membranes, CHO-K1, Membrane.
The nature of data set [2]: DRUGMATRIX: Leukotriene, BLT (LTB4) radioligand binding (ligand: [3H]LTB4). The class given is cell membranes, Membrane. To be noted: u-937; Not Active = under 50% inhibition at 10 µM.
For data set [3], the target named is T1, Cytochrome P450 2A6 (Homo sapiens, UniProt P11509). Also: in other assays of this panel Not Active means under 50% inhibition at 10 µM.
T1 sequence (P11509 whole entry): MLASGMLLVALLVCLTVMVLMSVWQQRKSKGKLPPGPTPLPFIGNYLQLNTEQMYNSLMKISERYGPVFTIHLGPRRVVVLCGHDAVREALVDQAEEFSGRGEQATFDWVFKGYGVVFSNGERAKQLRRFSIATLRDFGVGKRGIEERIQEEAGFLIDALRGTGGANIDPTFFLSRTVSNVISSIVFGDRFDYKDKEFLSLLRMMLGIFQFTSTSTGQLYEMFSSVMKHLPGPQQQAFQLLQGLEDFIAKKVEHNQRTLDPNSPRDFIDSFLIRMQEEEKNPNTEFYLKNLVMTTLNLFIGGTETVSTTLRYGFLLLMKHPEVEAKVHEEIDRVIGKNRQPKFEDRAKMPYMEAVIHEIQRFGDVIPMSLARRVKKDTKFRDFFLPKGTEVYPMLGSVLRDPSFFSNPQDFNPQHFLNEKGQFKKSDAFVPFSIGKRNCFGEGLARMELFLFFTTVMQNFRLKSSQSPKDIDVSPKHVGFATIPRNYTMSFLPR
To be noted: bti-tn-5b1-4.

The target in data set [4] is T2, Cholecystokinin receptor type A (Homo sapiens, UniProt P32238). Also: in other assays of this panel Not Active means under 50% inhibition at 10 µM.
T2 sequence (P32238 whole entry): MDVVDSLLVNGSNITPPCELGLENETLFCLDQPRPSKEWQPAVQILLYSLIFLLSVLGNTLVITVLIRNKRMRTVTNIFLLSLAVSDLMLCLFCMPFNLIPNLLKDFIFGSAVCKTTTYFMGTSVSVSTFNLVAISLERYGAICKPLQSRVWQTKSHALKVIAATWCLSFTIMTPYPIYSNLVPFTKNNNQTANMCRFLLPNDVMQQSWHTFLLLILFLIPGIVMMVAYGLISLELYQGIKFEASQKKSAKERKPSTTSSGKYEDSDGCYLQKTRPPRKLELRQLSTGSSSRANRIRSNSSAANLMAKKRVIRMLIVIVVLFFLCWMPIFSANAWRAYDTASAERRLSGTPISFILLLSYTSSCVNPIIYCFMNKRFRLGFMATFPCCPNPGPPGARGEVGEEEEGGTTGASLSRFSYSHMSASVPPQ
The class given is cell membranes, Membrane. The conditions noted are these: 1321-n1.

Data set [5] concerns the target T3, Interstitial collagenase (Homo sapiens, UniProt P03956).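 Also: MMP-1 enzyme inhibition assay using a peptide substrate; in other assays of this panel Not Active means under 50% inhibition at 10 µM.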
T3 sequence (P03956 whole entry): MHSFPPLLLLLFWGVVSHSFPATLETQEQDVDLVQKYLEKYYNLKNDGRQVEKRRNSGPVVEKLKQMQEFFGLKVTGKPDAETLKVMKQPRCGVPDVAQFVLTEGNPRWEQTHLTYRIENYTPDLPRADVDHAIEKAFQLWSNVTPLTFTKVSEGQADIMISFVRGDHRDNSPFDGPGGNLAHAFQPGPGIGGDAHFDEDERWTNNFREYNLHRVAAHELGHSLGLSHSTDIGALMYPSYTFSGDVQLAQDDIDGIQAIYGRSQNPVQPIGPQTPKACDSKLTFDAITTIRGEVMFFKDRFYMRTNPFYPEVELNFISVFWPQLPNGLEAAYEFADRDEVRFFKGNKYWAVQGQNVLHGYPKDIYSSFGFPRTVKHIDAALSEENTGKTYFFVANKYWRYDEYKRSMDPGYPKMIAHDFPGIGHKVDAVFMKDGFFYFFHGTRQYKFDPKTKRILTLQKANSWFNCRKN
The experiment in a line: biochemical. The class given is tissue-based, Rheumatoid synovial fibroblasts.

Data set [6] can be described thus: DRUGMATRIX: Phosphodiesterase PDE4 enzyme inhibition (substrate: [3H]cAMP + cAMP). The conditions noted are these: u-937; Not Active = under 50% inhibition at 10 µM.
For data set [7], the target named is T4, Cysteinyl leukotriene receptor 1 (Homo sapiens, UniProt Q9Y271). Also: in other assays of this panel Not Active means under 50% inhibition at 10 µM.
T4 sequence (Q9Y271 whole entry): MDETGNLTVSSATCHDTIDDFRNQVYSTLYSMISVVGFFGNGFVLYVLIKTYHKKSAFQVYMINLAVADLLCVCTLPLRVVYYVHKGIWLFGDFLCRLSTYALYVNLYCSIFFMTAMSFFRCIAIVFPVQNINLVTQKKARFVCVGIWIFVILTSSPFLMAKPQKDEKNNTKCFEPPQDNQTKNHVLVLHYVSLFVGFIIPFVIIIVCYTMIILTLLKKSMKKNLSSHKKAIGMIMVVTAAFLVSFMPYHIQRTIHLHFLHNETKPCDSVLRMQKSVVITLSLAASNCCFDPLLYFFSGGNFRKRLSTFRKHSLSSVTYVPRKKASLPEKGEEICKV
The class given is cell membranes, Membrane. The conditions noted are these: cho-k1.

Molecules are shown by their SMILES.

Sequence of 5-hydroxytryptamine receptor 2B (P41595 whole entry): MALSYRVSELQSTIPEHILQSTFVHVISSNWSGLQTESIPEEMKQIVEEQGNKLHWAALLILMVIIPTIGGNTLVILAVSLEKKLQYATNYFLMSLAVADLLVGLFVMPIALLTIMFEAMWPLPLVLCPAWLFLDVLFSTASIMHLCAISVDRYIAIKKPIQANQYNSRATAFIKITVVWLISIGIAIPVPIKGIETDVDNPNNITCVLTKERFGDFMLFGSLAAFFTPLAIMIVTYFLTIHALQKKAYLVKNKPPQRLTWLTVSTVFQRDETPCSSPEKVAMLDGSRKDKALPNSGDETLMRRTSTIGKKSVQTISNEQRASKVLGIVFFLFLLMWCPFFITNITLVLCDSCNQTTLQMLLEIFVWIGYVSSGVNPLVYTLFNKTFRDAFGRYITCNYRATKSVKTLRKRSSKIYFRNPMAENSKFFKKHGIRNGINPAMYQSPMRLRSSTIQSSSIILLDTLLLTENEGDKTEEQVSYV

With `NCCCNCCSP(=O)(O)O` [AMIFOSTINE], the IC50 result in data set [1] (cho-k1), in data set [2], in data set [3], in data set [4], in data set [5] and in data set [6] was “Not Active” throughout. In data set [7], the IC50 result is “Not Active”. The inhibition constant (Ki) entry in data set [2], in data set [3] and in data set [6] was “Not Active” in each case.
Take `CC(=O)Oc1ccccc1C(=O)O` [ASPIRIN]: the IC50 entry in data set [1] (cho-k1), in data set [2], in data set [3], in data set [4], in data set [5] and in data set [6] was “Not Active” in each case. In addition, in data set [7], the IC50 result is recorded as “Not Active”. The Ki entry in data set [2], in data set [3] and in data set [6] was “Not Active” in each case.
In the case of `CC(C)c1c(C(=O)Nc2ccccc2)c(-c2ccccc2)c(-c2ccc(F)cc2)n1CC[C@@H](O)C[C@@H](O)CC(=O)O` [ATORVASTATIN], the IC50 result in data set [1] (cho-k1), in data set [2], in data set [3], in data set [4], in data set [5] and in data set [6] was “Not Active” throughout. Besides, the IC50 entry in data set [7] is “Not Active”. For the same molecule, the Ki result in data set [2], in data set [3] and in data set [6] was “Not Active” throughout.
Regarding `CC(=O)OC[C@H]1O[C@@H](n2ncc(=O)[nH]c2=O)[C@H](OC(C)=O)[C@@H]1OC(C)=O` [AZARIBINE], the IC50 entry in data set [1] (cho-k1), in data set [2], in data set [3], in data set [4], in data set [5] and in data set [6] was “Not Active” in each case. Moreover, the IC50 result in data set [7] is given as “Not Active”. Besides, the Ki entry in data set [2], in data set [3] and in data set [6] was “Not Active” each time.
With `C[C@H]1[C@H](NC(=O)/C(=N\OC(C)(C)C(=O)O)c2csc(N)n2)C(=O)N1S(=O)(=O)O` [AZTREONAM], the IC50 result in data set [1] (cho-k1), in data set [2], in data set [3], in data set [4], in data set [5] and in data set [6] was “Not Active” each time. Further, the IC50 result in data set [7] is reported as “Not Active”. In addition, the Ki result in data set [2], in data set [3] and in data set [6] was “Not Active” throughout.
For `O=C(O)CCNC(=O)c1ccc(/N=N/c2ccc(O)c(C(=O)O)c2)cc1` [BALSALAZIDE], the IC50 result in data set [1] (cho-k1), in data set [2], in data set [3], in data set [4], in data set [5] and in data set [6] was “Not Active” in each case. Also, the IC50 entry in data set [7] is “Not Active”. Also, the Ki result in data set [2], in data set [3] and in data set [6] was “Not Active” throughout.
In the case of `COc1cc(OC)c(C(=O)CCCN2CCCC2)c(OC)c1` [BUFLOMEDIL], the half-maximal inhibitory concentration (IC50) result in data set [1] (cho-k1), in data set [2], in data set [3], in data set [4], in data set [5] and in data set [6] was “Not Active” throughout. Further, in data set [7], the IC50 result is “Not Active”. The Ki entry in data set [2], in data set [3] and in data set [6] was “Not Active” throughout.
Turning to `Cn1c(=O)c2c(ncn2C)n(C)c1=O` [CAFFEINE], the IC50 entry in data set [1] (cho-k1), in data set [2], in data set [3], in data set [4], in data set [5] and in data set [6] was “Not Active” each time. Also, in data set [7], the half-maximal inhibitory concentration (IC50) entry is given as “Not Active”. In addition, the Ki result in data set [2], in data set [3] and in data set [6] was “Not Active” in each case.
Consider `ClC(Cl)(Cl)Cl` [CARBON TETRACHLORIDE], for which the IC50 result in data set [1] (cho-k1), in data set [2], in data set [3], in data set [4], in data set [5] and in data set [6] was “Not Active” each time. Moreover, the IC50 result in data set [7] was “Not Active”. Also, the Ki result in data set [2], in data set [3] and in data set [6] was “Not Active” in each case.
As for `CO/N=C(\C(=O)N[C@@H]1C(=O)N2C(C(=O)O)=C(COC(C)=O)CS[C@H]12)c1csc(N)n1` [CEFOTAXIME], the IC50 result in data set [1] (cho-k1), in data set [2], in data set [3], in data set [4], in data set [5] and in data set [6] was “Not Active” in each case. Besides, the IC50 entry in data set [7] is recorded as “Not Active”. For the same molecule, the inhibitory constant (Ki) result in data set [2], in data set [3] and in data set [6] was “Not Active” each time.
Consider `CNC1=Nc2ccc(Cl)cc2C(c2ccccc2)=[N+]([O-])C1` [CHLORDIAZEPOXIDE], for which the IC50 entry in data set [1] (cho-k1), in data set [2], in data set [3], in data set [4], in data set [5] and in data set [6] was “Not Active” in each case. For the same molecule, the concentration for half-maximal inhibition (IC50) entry in data set [7] is “Not Active”. Moreover, the Ki result in data set [2], in data set [3] and in data set [6] was “Not Active” each time.
For `Cc1cc(O)cc(C)c1Cl` [CHLOROXYLENOL], the IC50 was 1860 nM in data set [1] (read-out: IC50); “Not Active” in data set [2]; “Not Active” in data set [3]; “Not Active” in data set [4]; “Not Active” in data set [5]; “Not Active” in data set [6]. Moreover, in data set [7], the half-maximal inhibitory concentration (IC50) result is “Not Active”. Further, the Ki was 1180 nM in data set [1] (read-out: Ki), “Not Active” in data set [2], “Not Active” in data set [3] and “Not Active” in data set [6].
As for `CCCNC(=O)NS(=O)(=O)c1ccc(Cl)cc1` [CHLORPROPAMIDE], the IC50 entry in data set [1] (cho-k1), in data set [2], in data set [3], in data set [4], in data set [5] and in data set [6] was “Not Active” throughout. Besides, the IC50 result in data set [7] is recorded as “Not Active”. For the same molecule, the Ki result in data set [2], in data set [3] and in data set [6] was “Not Active” throughout.
`NS(=O)(=O)c1cc(C2(O)NC(=O)c3ccccc32)ccc1Cl` (stereo unspecified) [CHLORTHALIDONE]: the IC50 result in data set [1] (cho-k1), in data set [2], in data set [3], in data set [4], in data set [5] and in data set [6] was “Not Active” throughout. Besides, the IC50 result in data set [7] is listed as “Not Active”. In addition, the Ki entry in data set [2], in data set [3] and in data set [6] was “Not Active” each time.
As to `O=C(O)CC(O)(CC(=O)O)C(=O)O` [CITRIC ACID], the IC50 result in data set [1] (cho-k1), in data set [2], in data set [3], in data set [4], in data set [5] and in data set [6] was “Not Active” each time. In addition, the IC50 entry in data set [7] is “Not Active”. Also, the Ki entry in data set [2], in data set [3] and in data set [6] was “Not Active” in each case.

The IC50 is the midpoint of a concentration-inhibition curve. For orientation: Ki means the equilibrium dissociation constant of an inhibitor or competing ligand from its target.
